In patent publication US8609836B2, “4-aryl-2-anilino-pyrimidines” (Janssen Pharmaceutica NV, priority 2008, dated 2013):

What was measured:
[1] = tested on: MDA-MB-231; experiment: Cellular proliferation assay (Alamar blue), MDA-MB-231; format: cell-based; conditions: Homo sapiens, 10% FCS, 72 hours with compound, Alamar blue 24 h, read-out: MDA/MB231 (cellular proliferation assay, Table 4) (converted)
Summary of the method: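 Alamar blue conversion, quantified fluorimetrically (544 nm/590 nm), gave viable cell number relative to untreated controls; dye time 4 h for HCT-116, 6 h for U87-MG, 24 h for A2780 and MDA-MB-231. Compound exposure lasted 72 h, after 24 h pre-seeding, with 10% FCS, 37 °C, 5% CO2.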

[2] = molecular target: CDK1/CyclinB (h) (Homo sapiens, UniProt P06493); experiment: CDK1/CyclinB human kinase inhibition, Invitrogen's FRET assay (Z'lyte); format: biochemical; conditions: read-out: CDK1 pIC50 (converted)
Chain of CDK1/CyclinB (h) (P06493 whole entry): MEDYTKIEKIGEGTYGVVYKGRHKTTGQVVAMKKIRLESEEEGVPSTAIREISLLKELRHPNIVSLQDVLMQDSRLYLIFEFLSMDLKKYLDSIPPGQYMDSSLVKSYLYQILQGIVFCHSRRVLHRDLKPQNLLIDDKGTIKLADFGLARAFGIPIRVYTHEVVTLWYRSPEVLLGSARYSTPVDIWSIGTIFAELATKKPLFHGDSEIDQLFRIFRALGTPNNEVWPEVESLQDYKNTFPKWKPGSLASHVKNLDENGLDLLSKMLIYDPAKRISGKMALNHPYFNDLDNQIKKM
Chain of CDK1/CyclinB (h) (P14635 whole entry partner): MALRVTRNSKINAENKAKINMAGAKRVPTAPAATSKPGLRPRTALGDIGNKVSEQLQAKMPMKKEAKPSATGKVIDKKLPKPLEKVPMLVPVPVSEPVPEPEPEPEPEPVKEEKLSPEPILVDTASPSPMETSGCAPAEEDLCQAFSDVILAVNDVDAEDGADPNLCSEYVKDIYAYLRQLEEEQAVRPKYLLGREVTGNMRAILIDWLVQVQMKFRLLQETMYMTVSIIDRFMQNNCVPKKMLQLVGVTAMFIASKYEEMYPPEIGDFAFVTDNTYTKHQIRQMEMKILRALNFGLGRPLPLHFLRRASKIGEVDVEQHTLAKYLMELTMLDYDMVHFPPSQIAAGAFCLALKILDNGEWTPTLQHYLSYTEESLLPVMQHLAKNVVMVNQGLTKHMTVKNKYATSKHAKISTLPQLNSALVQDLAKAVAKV
Summary of the method: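 Read-out is the 460 nm/538 nm emission ratio (390 nm excitation) after a 60 min protease development step. Before that, 10 μM ATP and 2 μM Z'lyte Ser/Thr peptide 12 react 60 min at room temperature with 0.2 μg/ml human CDK1/CyclinB in Hepes pH 7.5 containing MgCl2, EGTA and Brij-35.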

[3] = molecular target: PLK4 (h) (Homo sapiens, UniProt O00444); experiment: PLK-4 human kinase inhibition, scintillation proximity assay (SPA); format: biochemical; conditions: read-out: PLK4 pIC50 (converted)
Chain of PLK4 (h) (O00444 whole entry): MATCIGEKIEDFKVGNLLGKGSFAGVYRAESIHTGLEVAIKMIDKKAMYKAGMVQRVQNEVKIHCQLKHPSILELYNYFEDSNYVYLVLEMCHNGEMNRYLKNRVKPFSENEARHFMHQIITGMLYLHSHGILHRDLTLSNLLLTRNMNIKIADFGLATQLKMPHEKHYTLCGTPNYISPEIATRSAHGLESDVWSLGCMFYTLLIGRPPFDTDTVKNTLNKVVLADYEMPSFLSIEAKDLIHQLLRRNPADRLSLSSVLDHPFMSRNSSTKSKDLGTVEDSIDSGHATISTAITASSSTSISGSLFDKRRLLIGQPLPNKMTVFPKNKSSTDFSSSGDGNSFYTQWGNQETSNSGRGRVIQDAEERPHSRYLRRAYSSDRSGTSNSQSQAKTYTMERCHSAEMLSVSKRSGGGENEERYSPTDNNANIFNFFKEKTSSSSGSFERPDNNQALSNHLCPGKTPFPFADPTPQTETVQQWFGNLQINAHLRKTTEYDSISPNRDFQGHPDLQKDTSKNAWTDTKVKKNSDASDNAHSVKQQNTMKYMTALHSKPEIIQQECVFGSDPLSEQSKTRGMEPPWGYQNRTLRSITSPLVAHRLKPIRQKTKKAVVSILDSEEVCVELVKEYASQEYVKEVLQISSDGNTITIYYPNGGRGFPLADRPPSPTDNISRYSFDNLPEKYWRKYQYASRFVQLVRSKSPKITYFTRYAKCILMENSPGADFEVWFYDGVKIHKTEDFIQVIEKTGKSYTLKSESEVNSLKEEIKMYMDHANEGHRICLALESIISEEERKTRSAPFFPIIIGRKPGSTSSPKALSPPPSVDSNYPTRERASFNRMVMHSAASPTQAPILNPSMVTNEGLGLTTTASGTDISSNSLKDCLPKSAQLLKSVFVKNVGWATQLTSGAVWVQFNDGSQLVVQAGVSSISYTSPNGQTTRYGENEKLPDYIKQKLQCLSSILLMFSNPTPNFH

[4] = molecular target: AuroraB (h) (Homo sapiens, UniProt Q96GD4); experiment: Aurora-B human kinase inhibition, SPA; format: biochemical; conditions: read-out: AuroraB pIC50 (converted)
Chain of AuroraB (h) (Q96GD4 whole entry): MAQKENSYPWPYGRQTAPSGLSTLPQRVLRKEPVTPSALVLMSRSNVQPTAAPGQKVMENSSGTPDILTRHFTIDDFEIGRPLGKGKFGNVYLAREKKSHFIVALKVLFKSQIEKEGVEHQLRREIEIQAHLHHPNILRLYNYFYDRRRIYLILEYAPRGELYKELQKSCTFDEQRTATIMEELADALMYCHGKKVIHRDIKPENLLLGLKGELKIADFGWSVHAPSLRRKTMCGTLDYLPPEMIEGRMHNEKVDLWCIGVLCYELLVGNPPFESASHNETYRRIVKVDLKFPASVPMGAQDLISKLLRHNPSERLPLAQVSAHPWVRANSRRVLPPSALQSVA
Summary of the method: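 AuroraB (0.5 μg/ml) phosphorylates 3 μM biotin-peptide using 0.5 μM ATP spiked with 33P-ATP in Hepes pH 7.5 with 3 mM MgCl2 and MnCl2, for 60 min at room temperature. EDTA stop solution carries streptavidin scintillant beads, and the captured radiolabel is imaged.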

IC50 [1]	IC50 [2]	IC50 [3]	IC50 [4]	Structure (SMILES)
9.33 µM	> 10 µM	0.49 µM	2.29 µM	O=C1NCc2ccc(cc2)-c2ccnc(n2)Nc2ccc(N3CCOCC3)c(c2)CN2CCC1CC2 [Compound 12]
> 10 µM	> 10 µM	0.0741 µM	> 10 µM	COc1cc2cc(c1OC)CN1CCC[C@H]1C(=O)NCc1cccc(c1)-c1ccnc(n1)N2 [Compound 23]
> 10 µM	> 10 µM	0.0933 µM	> 10 µM	CN1CCN(C(=O)c2ccc3cc2CN2CCC[C@H]2C(=O)NCc2cccc(c2)-c2ccnc(n2)N3)CC1 [Compound 25]
> 10 µM	0.55 µM	0.178 µM	> 10 µM	O=C1NCc2cccc(c2)-c2ccnc(n2)Nc2cc(cc(C(=O)N3CCOCC3)c2)CN2CCC[C@@H]12 [Compound 32]
> 10 µM	1.23 µM	0.186 µM	> 10 µM	CN1CCN(C(=O)c2cc3cc(c2)Nc2nccc(n2)-c2cccc(c2)CNC(=O)[C@@H]2CCCN2C3)CC1 [Compound 34]
6.31 µM	1.66 µM	0.263 µM	> 10 µM	CN1CCC(NC(=O)c2cc3cc(c2)Nc2nccc(n2)-c2cccc(c2)CNC(=O)[C@@H]2CCCN2C3)CC1 [Compound 38]
5.13 µM	2 µM	0.646 µM	> 10 µM	CN1CCC(NC(=O)c2ccc3cc2CN2CCC[C@H]2C(=O)NCc2cccc(c2)-c2ccnc(n2)N3)CC1 [Compound 47]
> 10 µM	> 10 µM	5.89 µM	> 10 µM	O=C1NCc2ccc(cc2)-c2ccnc(n2)Nc2ccc(N3CCOCC3)c(c2)CN2CCC[C@@H]12 [Compound 49]
> 10 µM	> 10 µM	> 10 µM	> 10 µM	O=C1NCc2cccc(c2)-c2ccnc(n2)Nc2ccc(cc2)CN2CCC[C@@H]12 [Compound 54]
9.12 µM	> 10 µM	0.871 µM	> 10 µM	COc1cc2cc(c1)Nc1nccc(n1)-c1ccc(cc1)CN(C)CCNC(=O)C1CCN(CC1)C2 [Compound 62]
> 10 µM	> 10 µM	1.23 µM	> 10 µM	CC(C)Nc1cc2cc(c1)Nc1nccc(n1)-c1ccc(cc1)CN(C)CCCNC(=O)C1CCN(CC1)C2 [Compound 65]
8.32 µM	> 10 µM	1.35 µM	> 10 µM	COc1cc2cc(c1)Nc1nccc(n1)-c1ccc(cc1)CN(C)CCCNC(=O)C1CCN(CC1)C2 [Compound 66]
> 10 µM	> 10 µM	2.63 µM	> 10 µM	O=C1NCCOc2cccc(c2)-c2ccnc(n2)Nc2ccc(N3CCOCC3)c(c2)CN2CCC1CC2 [Compound 94]
> 10 µM	7.24 µM	6.61 µM	> 10 µM	O=C1NCc2cccc(c2)-c2ccnc(n2)Nc2ccc(N3CCOCC3)c(c2)CN2CCC1CC2 [Compound 95]
> 10 µM	> 10 µM	0.447 µM	4.79 µM	COc1ccc2cc1CN(C)CCNC(=O)[C@H](CO)NCc1cc(cc(N3CCOCC3)c1)Nc1nccc-2n1 [Compound 105]
> 10 µM	> 10 µM	0.589 µM	2.04 µM	COc1cc2cc(c1)Nc1nccc(n1)-c1ccc(OC)c(c1)CN(C)CCNC(=O)[C@H](CO)NC2 [Compound 107]

Further lines, the molecule ahead of its results:

Structure (SMILES)	IC50 [1]	IC50 [2]	IC50 [3]	IC50 [4]
COc1ccc2cc1CN[C@@H](CO)C(=O)N(C)CCCN(C)c1ccc(cn1)-c1ccnc(n1)N2 [Compound 11]	> 10 µM	> 10 µM	0.933 µM	> 10 µM
O=C1NCc2cc(ccc2N2CCOCC2)Nc2nccc(n2)-c2cccc(c2)CN2CCC[C@@H]12 [Compound 15]	> 10 µM	> 10 µM	0.575 µM	2.95 µM
COc1cc2cc(c1OC)CN1CCC[C@H]1C(=O)N(C)CCN(C)c1cc(ccn1)-c1ccnc(n1)N2 [Compound 17]	> 10 µM	8.13 µM	2.69 µM	> 10 µM
O=C1NCc2cccc(c2)-c2ccnc(n2)Nc2ccc(N3CCOCC3)c(c2)CN[C@H]1Cc1ccccc1 [Compound 18]	> 10 µM	> 10 µM	0.646 µM	> 10 µM
O=C1CN2CCN(CC2)Cc2cc(ccc2N2CCOCC2)Nc2nccc(n2)-c2cccc(c2)CN1 [Compound 20]	> 3.02 µM	> 10 µM	5.25 µM	> 10 µM
O=C1NCc2cccc(c2)-c2ccnc(n2)Nc2ccc(C(=O)N3CCOCC3)c(c2)CN2CCC[C@@H]12 [Compound 26]	8.13 µM	> 10 µM	0.0977 µM	> 10 µM
O=C1NCc2cccc(c2)-c2ccnc(n2)Nc2ccc(N3CCOCC3)c(c2)CN2C[C@@H](O)C[C@@H]12 [Compound 27]	3.8 µM	1.91 µM	0.11 µM	> 10 µM
CN(C)C(=O)c1cc2cc(c1)Nc1nccc(n1)-c1cccc(c1)CNC(=O)[C@@H]1CCCN1C2 [Compound 35]	> 10 µM	0.288 µM	0.204 µM	> 10 µM
O=C(NC1CCOCC1)c1cc2cc(c1)Nc1nccc(n1)-c1cccc(c1)CNC(=O)[C@@H]1CCCN1C2 [Compound 37]	> 10 µM	5.37 µM	0.245 µM	4.9 µM
CN(C)CCNC(=O)c1cc2cc(c1)Nc1nccc(n1)-c1cccc(c1)CNC(=O)[C@@H]1CCCN1C2 [Compound 39]	6.76 µM	1.45 µM	0.282 µM	> 10 µM
O=C1NCc2cc(ccc2N2CCOCC2)Nc2nccc(n2)-c2cccc(c2)CCN2CCC[C@@H]12 [Compound 43]	5.62 µM	0.427 µM	0.363 µM	> 10 µM
COCCNC(=O)c1cc2cc(c1)Nc1nccc(n1)-c1cccc(c1)CNC(=O)[C@@H]1CCCN1C2 [Compound 44]	> 10 µM	0.427 µM	0.407 µM	> 10 µM
O=C1NCc2cccc(c2)-c2ccnc(n2)Nc2cccc(c2)CN2C[C@@H](O)C[C@@H]12 [Compound 45]	6.76 µM	0.0708 µM	0.417 µM	> 10 µM
O=C1NCc2cccc(c2)-c2ccnc(n2)Nc2cc(ccc2Cl)CN2CCC[C@@H]12 [Compound 51]	> 10 µM	> 10 µM	> 10 µM	> 10 µM
O=C1NCc2cccc(c2)-c2ccnc(n2)Nc2cc(ccc2Cl)CN2C[C@H](O)C[C@@H]12 [Compound 52]	> 10 µM	> 10 µM	> 10 µM	> 10 µM
O=C1NCc2cccc(c2)-c2ccnc(n2)Nc2ccc(cc2)CN2C[C@H](O)C[C@@H]12 [Compound 55]	> 10 µM	> 10 µM	> 10 µM	> 10 µM
O=C1NCc2ccc(cc2)-c2ccnc(n2)Nc2ccc(N3CCOCC3)c(c2)CN2C[C@H](O)C[C@@H]12 [Compound 56]	> 10 µM	> 10 µM	~10 µM	> 10 µM
O=C1NCc2cccc(c2)-c2ccnc(n2)Nc2ccccc2CN2CCC[C@@H]12 [Compound 57]	> 10 µM	> 10 µM	> 10 µM	> 10 µM
CC(C)(C)O[C@@H]1C[C@H]2C(=O)NCc3cccc(c3)-c3ccnc(n3)Nc3ccccc3CN2C1 [Compound 58]	> 10 µM	> 10 µM	> 10 µM	> 10 µM
COc1cc2cc(c1)Nc1nccc(n1)-c1ccc(OC)c(c1)CN(C)CCNC(=O)C1CCN(CC1)C2 [Compound 67]	> 10 µM	> 10 µM	1.51 µM	5.13 µM
COc1cc2cc(c1)Nc1nccc(n1)-c1ccc(OC)c(c1)CN(C)CCCNC(=O)C1CCN(CC1)C2 [Compound 73]	> 10 µM	> 10 µM	2.57 µM	> 10 µM
COc1ccc2cc1CN(C)CCNC(=O)C1CCN(CC1)Cc1cc(NCCc3ccccc3)cc(c1)Nc1nccc-2n1 [Compound 74]	5.89 µM	> 10 µM	2.95 µM	> 10 µM
C[C@@H]1NCCc2cccc(c2)-c2ccnc(n2)Nc2ccc(N3CCOCC3)c(c2)CNC1=O [Compound 100]	3.47 µM	0.151 µM	1.15 µM	> 10 µM
C[C@@H]1NCc2cccc(c2)-c2ccnc(n2)Nc2ccc(N3CCOCC3)c(c2)CNC1=O [Compound 101]	8.13 µM	> 10 µM	1.82 µM	> 10 µM
O=C1CN2CCN(CC2)Cc2cc(ccc2N2CCOCC2)Nc2nccc(n2)-c2cccc(c2)OCCN1 [Compound 102]	6.61 µM	2.57 µM	0.794 µM	> 10 µM
COc1cc2cc(c1)Nc1nccc(n1)-c1ccc(cc1)CN(C)CCNC(=O)[C@H](CO)NC2 [Compound 109]	> 10 µM	> 10 µM	0.741 µM	7.41 µM
